In patent US20240336611A1 (Insilico Medicine IP Limited, priority 2021, published 2024):

Molecular target: T1, TNIK kinase [amino acid sequence (1-367), Invitrogen] (Homo sapiens, UniProt Q9UKE5)
T1 construct: purchased Invitrogen
Assay: TNIK kinase inhibition assay (Z-lyte FRET-peptide)
Format: biochemical
Conditions: 0.625 nM TNIK kinase, 2 μM Ser/Thr 7 peptide, 64 μM ATP, one hour at room temperature
Method: Z-lyte assay kit was purchased from Invitrogen. A site-specific protease recognizes and cleaves non-phosphorylated FRET-peptides. Phosphorylation of FRET-peptides suppresses cleavage by protease and will maintain FRET from donor to acceptor.
5 μl of Development Reagent A solution was then added to cleave non-phosphorylated peptide with a dilution 1:65000 in Development Buffer B. The assay plate was incubated at room temperature for another one hour and then read in the Envision plate reader (PerkinElmer).

T1 sequence (Q9UKE5 1-367): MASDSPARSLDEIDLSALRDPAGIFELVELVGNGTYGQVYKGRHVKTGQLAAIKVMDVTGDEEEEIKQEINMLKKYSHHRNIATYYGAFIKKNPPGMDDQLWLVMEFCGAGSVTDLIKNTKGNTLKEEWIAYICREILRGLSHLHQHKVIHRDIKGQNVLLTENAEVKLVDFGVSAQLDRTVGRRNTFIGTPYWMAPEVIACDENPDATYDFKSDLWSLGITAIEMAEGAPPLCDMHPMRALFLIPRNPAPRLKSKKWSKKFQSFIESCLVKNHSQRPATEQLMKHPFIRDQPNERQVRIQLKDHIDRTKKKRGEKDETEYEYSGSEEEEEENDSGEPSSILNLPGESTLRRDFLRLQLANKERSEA

| Compound | IC50 |
| --- | --- |
| 2-(4-(4-fluorophenyl)-1-isopropyl-1H-imidazol-5-yl)-N-(5-((1R,5S)-8-methyl-8-azabicyclo[3.2.1]octan-3-yl)pyridin-2-yl)oxazole-4-carboxamide [Compound 62] | 12 to 150 nM |
| CC(C)n1cnc(-c2ccc(F)cc2)c1-c1cnc(C(=O)Nc2ccc(N3CCN(C)CC3)cc2)s1 [Compound 1, 5-(4-(4-fluorophenyl)-1-isopropyl-1H-imidazol-5-yl)-N-(4-(4-methylpiperazin-1-yl)phenyl)thiazole-2-carboxamide] | > 150 nM |
| CC(C)n1cnc(-c2ccc(F)cc2)c1-c1ncc(C(=O)Nc2ccc(N3CCN(C)CC3)cc2)s1 [Compound 3, 2-(4-(4-fluorophenyl)-1-isopropyl-1H-imidazol-5-yl)-N-(4-(4-methylpiperazin-1-yl)phenyl)thiazole-5-carboxamide] | > 150 nM |
| CC(C)n1cnc(-c2ccc(F)cc2)c1-c1csc(C(=O)Nc2ccc(N3CCN(C)CC3)cc2)n1 [Compound 4, 4-(4-(4-fluorophenyl)-1-isopropyl-1H-imidazol-5-yl)-N-(4-(4-methylpiperazin-1-yl)phenyl)thiazole-2-carboxamide] | 1 to 12 nM |
| CN1CCN(c2ccc(NC(=O)c3c[nH]c(-c4c(-c5ccc(F)cc5)ncn4C4CC4)n3)cc2)CC1 [Compound 15, 3′-cyclopropyl-5′-(4-fluorophenyl)-N-(4-(4-methylpiperazin-1-yl)phenyl)-1H,3′H-[2,4′-biimidazole]-4-carboxamide] | 12 to 150 nM |
| CC(C)n1cnc(-c2ccc(F)cc2)c1-c1nc(C(=O)Nc2ccc(N3CCN(C)CC3)c(F)c2)c[nH]1 [Compound 16, N-(3-fluoro-4-(4-methylpiperazin-1-yl)phenyl)-5′-(4-fluorophenyl)-3′-isopropyl-1H,3′H-[2,4′-biimidazole]-4-carboxamide] | 1 to 12 nM |
| CC(C)n1cnc(-c2ccc(F)cc2)c1-c1nc(C(=O)Nc2ccc(N3CCN(C)CC3)c(F)c2F)c[nH]1 [Compound 17, N-(2,3-difluoro-4-(4-methylpiperazin-1-yl)phenyl)-5′-(4-fluorophenyl)-3′-isopropyl-1H,3′H-[2,4′-biimidazole]-4-carboxamide] | 1 to 12 nM |
| Cc1cc(NC(=O)c2cnc(-c3c(-c4ccc(F)cc4)ncn3C(C)C)[nH]2)ccc1N1CCN(C)CC1 [Compound 18, 5′-(4-fluorophenyl)-3′-isopropyl-N-(3-methyl-4-(4-methylpiperazin-1-yl)phenyl)-1H,3′H-[2,4′-biimidazole]-5-carboxamide] | 12 to 150 nM |
| CC(C)n1cnc(-c2ccc(F)cc2)c1-c1ncc(C(=O)Nc2ccc(N3CCC4(CC3)CN(C)C4)cc2)[nH]1 [Compound 19, 5′-(4-fluorophenyl)-3′-isopropyl-N-(4-(2-methyl-2,7-diazaspiro[3.5]nonan-7-yl)phenyl)-1H,3′H-[2,4′-biimidazole]-5-carboxamide] | 1 to 12 nM |
| CC(C)n1cnc(-c2ccc(F)cc2)c1-c1ncc(C(=O)Nc2ccc(N3CC4(CN(C)C4)C3)cc2)[nH]1 [Compound 20, 5′-(4-fluorophenyl)-3′-isopropyl-N-(4-(6-methyl-2,6-diazaspiro[3.3]heptan-2-yl)phenyl)-1H,3′H-[2,4′-biimidazole]-5-carboxamide] | 1 to 12 nM |
| CC(C)n1cnc(-c2ccc(F)cc2)c1-c1nc(C(=O)Nc2ccc(N3CCN(C)CC3)nc2)c[nH]1 [Compound 22, 5′-(4-fluorophenyl)-3′-isopropyl-N-(6-(4-methylpiperazin-1-yl)pyridin-3-yl)-1H,3′H-[2,4′-biimidazole]-4-carboxamide] | 12 to 150 nM |
| CC(C)n1cnc(-c2ccc(F)cc2)c1-c1nc(C(=O)Nc2ccc(N3C[C@H]4CC[C@@H](C3)N4C)nc2)c[nH]1 [Compound 25, 5′-(4-fluorophenyl)-3′-isopropyl-N-(6-((1R,5S)-8-methyl-3,8-diazabicyclo[3.2.1]octan-3-yl)pyridin-3-yl)-1H,3′H-[2,4′-biimidazole]-4-carboxamide] | 1 to 12 nM |
| CC(C)n1cnc(-c2ccc(F)cc2)c1-c1coc(C(=O)Nc2ccc(N3CCN(C)CC3)cc2F)n1 [Compound 27, N-(2-fluoro-4-(4-methylpiperazin-1-yl)phenyl)-4-(4-(4-fluorophenyl)-1-isopropyl-1H-imidazol-5-yl)oxazole-2-carboxamide] | 12 to 150 nM |
| CN1CCN(c2ccc(NC(=O)c3csc(-c4c(-c5ccc(F)cc5)nc5n4CCOC5)n3)nc2)CC1 [Compound 29, 2-(2-(4-fluorophenyl)-6,8-dihydro-5H-imidazo[2,1-c][1,4]oxazin-3-yl)-N-(5-(4-methylpiperazin-1-yl)pyridin-2-yl)thiazole-4-carboxamide] | 1 to 12 nM |
| CC(C)n1cnc(-c2ccc(F)cc2)c1-c1csc(C(=O)Nc2ccc(N3C[C@H]4CC[C@@H](C3)N4C)cn2)n1 [Compound 38, 4-(4-(4-fluorophenyl)-1-isopropyl-1H-imidazol-5-yl)-N-(5-((1R,5S)-8-methyl-3,8-diazabicyclo[3.2.1]octan-3-yl)pyridin-2-yl)thiazole-2-carboxamide] | 1 to 12 nM |
| CC(C)n1cnc(-c2ccc(F)cc2)c1-c1coc(C(=O)Nc2ccc(N3CC4CCC(C3)N4C)cn2)n1 [Compound 39, 4-(4-(4-fluorophenyl)-1-isopropyl-1H-imidazol-5-yl)-N-(5-(8-methyl-3,8-diazabicyclo[3.2.1]octan-3-yl)pyridin-2-yl)oxazole-2-carboxamide] | 12 to 150 nM |
| CC(C)n1cnc(-c2ccc(F)cc2)c1-c1nc(C(=O)Nc2ncc(N3CCN(C)CC3)cn2)cs1 [Compound 46, 2-(4-(4-fluorophenyl)-1-isopropyl-1H-imidazol-5-yl)-N-(5-(4-methylpiperazin-1-yl)pyrimidin-2-yl)thiazole-4-carboxamide] | > 150 nM |
| CN1C2CCC1CN(c1ccc(NC(=O)c3c[nH]c(-c4c(-c5ccc(F)cc5)ncn4C4CC4)n3)nc1)C2 [Compound 47, 3′-cyclopropyl-5′-(4-fluorophenyl)-N-(5-(8-methyl-3,8-diazabicyclo[3.2.1]octan-3-yl)pyridin-2-yl)-1H,3′H-[2,4′-biimidazole]-4-carboxamide] | 1 to 12 nM |
| CN1[C@@H]2CC[C@H]1CN(c1ccc(NC(=O)c3c[nH]c(-c4c(-c5ccc(F)cc5)ncn4C4CCC4)n3)nc1)C2 [Compound 48, 3′-cyclobutyl-5′-(4-fluorophenyl)-N-(5-((1R,5S)-8-methyl-3,8-diazabicyclo[3.2.1]octan-3-yl)pyridin-2-yl)-1H,3′H-[2,4′-biimidazole]-4-carboxamide] | 1 to 12 nM |
| CN1C2CC1CN(c1ccc(NC(=O)c3c[nH]c(-c4c(-c5ccc(F)cc5)ncn4C4CC4)n3)nc1)C2 [Compound 49, 3′-cyclopropyl-5′-(4-fluorophenyl)-N-(5-(6-methyl-3,6-diazabicyclo[3.1.1]heptan-3-yl)pyridin-2-yl)-1H,3′H-[2,4′-biimidazole]-4-carboxamide] | 12 to 150 nM |
| CN1C2CC1CN(c1ccc(NC(=O)c3c[nH]c(-c4c(-c5ccc(F)cc5)ncn4C4CCC4)n3)nc1)C2 [Compound 50, 3′-cyclobutyl-5′-(4-fluorophenyl)-N-(5-(6-methyl-3,6-diazabicyclo[3.1.1]heptan-3-yl)pyridin-2-yl)-1H,3′H-[2,4′-biimidazole]-4-carboxamide] | 1 to 12 nM |
| CC(C)n1cnc(-c2ccc(F)cc2)c1-c1nc(C(=O)Nc2ccc(C3CCN(C)CC3)cn2)c[nH]1 [Compound 52, 5′-(4-fluorophenyl)-3′-isopropyl-N-(5-(1-methylpiperidin-4-yl)pyridin-2-yl)-1H,3′H-[2,4′-biimidazole]-4-carboxamide] | 1 to 12 nM |
| CC(C)n1cnc(-c2ccc(F)cc2)c1-c1nc(C(=O)Nc2ccc(C3C[C@H]4CC[C@@H](C3)N4C)cn2)cs1 (stereo partly drawn) [Compound 60, 2-(4-(4-fluorophenyl)-1-isopropyl-1H-imidazol-5-yl)-N-(5-((1R,5S)-8-methyl-8-azabicyclo[3.2.1]octan-3-yl)pyridin-2-yl)thiazole-4-carboxamide] | 1 to 12 nM |
| O=C(Nc1ccc(N2CCOCC2)cn1)c1c[nH]c(-c2c(-c3ccc(F)cc3)ncn2C2CC(F)(F)C2)n1 [Compound 67, 3′-(3,3-difluorocyclobutyl)-5′-(4-fluorophenyl)-N-(5-morpholinopyridin-2-yl)-1H,3′H-[2,4′-biimidazole]-4-carboxamide] | 12 to 150 nM |
| O=C(Nc1ccc(N2CCC2)cn1)c1coc(-c2c(-c3ccc(F)cc3)ncn2C2CC(F)(F)C2)n1 [Compound 69, N-(5-(azetidin-1-yl)pyridin-2-yl)-2-(1-(3,3-difluorocyclobutyl)-4-(4-fluorophenyl)-1H-imidazol-5-yl)oxazole-4-carboxamide] | > 150 nM |
| O=C(Nc1ccc(N2CCOCC2)cn1)c1coc(-c2c(-c3ccc(F)cc3)ncn2C2COC2)n1 [Compound 71, 2-(4-(4-fluorophenyl)-1-(oxetan-3-yl)-1H-imidazol-5-yl)-N-(5-morpholinopyridin-2-yl)oxazole-4-carboxamide] | > 150 nM |
| O=C(Nc1ccc(N2CCC2)cn1)c1c[nH]c(-c2c(-c3ccc(F)cc3)ncn2C2CC(F)(F)C2)n1 [Compound 73, N-(5-(azetidin-1-yl)pyridin-2-yl)-3′-(3,3-difluorocyclobutyl)-5′-(4-fluorophenyl)-1H,3′H-[2,4′-biimidazole]-4-carboxamide] | 12 to 150 nM |
| O=C(Nc1ccc(N2CCC2)cn1)c1csc(-c2c(-c3ccc(F)cc3)ncn2C2COC2)n1 [Compound 75, N-(5-(azetidin-1-yl)pyridin-2-yl)-2-(4-(4-fluorophenyl)-1-(oxetan-3-yl)-1H-imidazol-5-yl)thiazole-4-carboxamide] | 1 to 12 nM |
| O=C(Nc1ccc(N2CCCC2)cn1)c1c[nH]c(-c2c(-c3ccc(F)cc3)ncn2C2CC(F)(F)C2)n1 [Compound 76, 3′-(3,3-difluorocyclobutyl)-5′-(4-fluorophenyl)-N-(5-(pyrrolidin-1-yl)pyridin-2-yl)-1H,3′H-[2,4′-biimidazole]-4-carboxamide] | 12 to 150 nM |
